Values joined by “and” are separate entries in the source; they are usually repeats but may differ in a detail not shown here. Identical values can stand only once.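 48-hour exposure; five concentrations; linearly interpolated endpoints. GI50 = concentration required for 50% inhibition of growth. The concentration for full growth arrest is given as TGI.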
Tested on: MDA-MB-468 breast
Assay: DTP human tumour cell line panel, 48 h

Row | SMILES | GI50 | TGI
1 | COC(=O)c1c2c(c(C)[n+]([O-])c1C)C(=O)C(NCc1ccc(F)c(F)c1)=CC2=O | 1160 nM | 3070 nM
2 | COC(=O)[C@@H](C)C[C@H](Cc1ccccc1)NC(=O)c1csc([C@@H](C[C@H](C(C)C)N(C)C(=O)[C@@H](NC(=O)[C@H]2CCCCN2C)C(C)C)OC(C)=O)n1 | – | > 25000 nM
3 | COc1cc2c3c(n(C4CCNCC4)c(=O)c2cc1OC)-c1cc2c(cc1C3=O)OCO2 | 455 nM | 1850 nM
4 | Clc1ccc(CO/N=C(\Cn2ccnc2)c2ccc(Cl)cc2Cl)c(Cl)c1 | 1590 nM | 3060 nM
5 | COc1ccc(-c2nc(-c3nc4cc(C)c(C)cc4[nH]3)cc3c2[nH]c2ccccc23)cc1 | 1990 nM | 4780 nM
6 | O=C(O)CCC1CCC(c2cc(F)ccc2F)(S(=O)(=O)c2ccc(Cl)cc2)CC1 (stereo unspecified) | 13100 nM and 45300 nM | 52500 nM and > 100000 nM
7 | CO[C@H]1CC[C@@]2(C)C(=CC[C@H]3[C@@H]4C[C@H](O)C[C@@]4(C)CC[C@@H]32)C1 | 2410 nM | 9070 nM
8 | Cc1ccc(C(=O)NC2CCCCC2)cc1-c1ccc(C(=O)NCC2CC2)cc1 | > 23600 nM | > 25000 nM
9 | Cc1cccc(N=C2c3cc([N+](=O)[O-])ccc3-c3c2cc([N+](=O)[O-])cc3[N+](=O)[O-])c1 | 1670 nM | 3320 nM
10 | Cc1ccc2sc3c(NCCCNCCO)nc4ccccc4c3c(=O)c2c1 | 1540 nM | 3160 nM
11 | CCOC(=O)c1c(Cl)c2c(n1Cc1cc(OC)cc(OC)c1)-c1oncc1CCC2 | 526 nM | > 100000 nM
12 | CCNc1nc(N2CC(=O)Nc3cc(OC)ccc32)c2ccccc2n1 | 0.26 nM | –
13 | COc1ccc(Nc2ccnc(NCCCNc3ccnc4cc(Cl)ccc34)n2)cc1 | 871 nM | 2420 nM
14 | COc1ccc(F)cc1C(=O)c1cnc(NC2CCN(S(C)(=O)=O)CC2)nc1N | 3950 nM | 9870 nM
15 | NC(=O)Oc1cc(OC(N)=O)cc(N(CCCl)CCCl)c1 | 1710 nM | 13000 nM
16 | C=C[C@]1(C)C=C2C(=O)[C@@]3(O)OC(=O)[C@@]4(CCCC(C)(C)[C@H]34)[C@@]2(O)CC1 | 414 nM | 2000 nM
17 | O=C1/C(=C/c2ccc(Cl)cc2)CN(C(=O)C(Cl)Cl)C/C1=C\c1ccc(Cl)cc1 | 182 nM | 376 nM
18 | Cc1ccc(S(=O)(=O)n2cc(C(=O)C(=O)Nc3ccncc3)c3ccccc32)cc1 | 1100 nM | 9530 nM
19 | O=C1/C(=C/C(Cl)=C/c2ccccc2)SC(=S)N1CCc1ccc(O)cc1 | 1890 nM | 6040 nM
20 | CC/C(=C(\CC)c1ccc(OCCN(CC)CC)cc1)c1ccc(OCCN(CC)CC)cc1 | 1590 nM | 3640 nM

Row | SMILES | GI50 | TGI
21 | COc1cc(C(=O)n2nc(N3CCN(C)CC3)c3cc(N)ccc32)cc(OC)c1OC | 2970 nM | 9380 nM
22 | Cc1ccc(NC(=O)c2ccnc(N3CCCC3)c2)cc1-c1ccc(C(=O)NCC2CC2)cc1 | > 25000 nM | > 25000 nM
23 | CN1CCN(Cc2ccc(Nc3ncc(Cl)c(Nc4ccccc4S(=O)(=O)N(C)C)n3)cc2)CC1 | 52.5 nM | 268 nM
24 | [N-]=[N+]=CC(=O)OCC(N)C(=O)O (stereo unspecified) | 1210 nM | 11100 nM
25 | COc1cnc2c(c1)C(=O)c1c-2n(CCCN2CCN(C)CC2)c(=O)c2cc(Cl)ccc12 | 1190 nM | 14800 nM
26 | COc1cccc2c1c1nc3cc(C)c(C)cc3nc1n2CCN(C)C | 1540 nM | 4140 nM
27 | C/C(=C\c1ccn(-c2ccc(N)cc2)n1)[C@@H]1C[C@@H]2O[C@]2(C)CCC[C@H](C)[C@H](O)[C@@H](C)C(=O)C(C)(C)[C@@H](O)CC(=O)O1 | 39.1 nM | 1190 nM
28 | CN1CCN(Cc2ccc(NC(=O)c3cncc(C#Cc4c(N)ncc5cc(F)ccc45)c3)cc2C(F)(F)F)CC1 | 6300 nM | 15400 nM
29 | CC[C@H](C)C(=O)O[C@H]1CCC=C2C=C[C@H](C)C(CCC3C[C@@H](O)CC(=O)O3)[C@H]21 (stereo partly specified) | 5850 nM | 30800 nM
30 | COC(=O)Nc1nc2ccc(Oc3ccc(NC(=O)Nc4cccc(Cl)c4)cc3)cc2[nH]1 | 269 nM | 2200 nM
31 | CN(C)CC1CCn2c(c(C3=C(c4cn(C)c5ccccc45)C(=O)NC3=O)c3ccccc32)C1 (stereo unspecified) | 3510 nM | 7570 nM
32 | CO[C@H](C(=O)N[C@@H](CCCCNC(=O)OCc1ccccc1)C(=O)OC(C)(C)C)[C@@H]1Cc2cc3cc(OC4CC(OC5CC(O)C(O)C(C)O5)C(O)C(C)O4)c(C)c(O)c3c(O)c2C(=O)[C@H]1OC1CC(OC2CC(OC3CC(C)(O)C(O)C(C)O3)C(O)C(C)O2)C(O)C(C)O1 (stereo partly specified) | 764 nM | 2920 nM
33 | O=C(Cn1ccnc1[N+](=O)[O-])NCC(F)(F)C(F)(F)F | > 100000 nM | > 100000 nM
34 | Cn1cc(C2=C(c3c4n(c5ccccc35)CCC(CN)CC4)C(=O)NC2=O)c2ccccc21 (stereo unspecified) | 3720 nM | 7510 nM
35 | CCN1CCN(S(=O)(=O)c2oc(-c3ccc(Cl)cc3)nc2C#N)CC1 | 2210 nM | 5160 nM
36 | C#C[C@@]1(O)[C@@H](CO)O[C@@H](n2cc(F)c3c(N)ncnc32)[C@@H]1O | 301 nM | 1530 nM
37 | O=C(Nc1ccc(Br)c(Cl)c1)c1cc(F)ccc1O | 942 nM | 3350 nM
38 | CCCCCCCCCCCCCCCCOCCCOP(=O)(O)C1CCCN(O)C1=O (stereo unspecified) | 2570 nM | 9930 nM
39 | CCCCCc1ccc(S(=O)(=O)Nc2cc(-c3csc(NC(=O)CN4CCN(C)CC4)n3)ccc2N2CCN(C)CC2)cc1 | 901 nM | 2020 nM
